Here are results for 20 compounds from ChEMBL document CHEMBL1154043, “Synthesis and structure-activity relationship of a novel series of heterocyclic sulfonamide gamma-secretase inhibitors” (Bioorg Med Chem, 2009).

Calls of active or inactive are those of the source. No cut-off for these calls is given here.

System in the first assay: not listed separately
Nature of the assay: Inhibition of gamma-secretase assessed as increase in beta-C-terminal fragment level after 24 hrs by double sandwich ELISA.
`Cc1ccc(-n2nccc2[C@H](NS(=O)(=O)c2ccc(Cl)s2)C(C)C)cc1`: the outcome was Active.

Take `CCC(CC)C(c1ccnn1-c1ccccc1)N(C)S(=O)(=O)c1ccc(Cl)s1` (stereo not given): the result was Active.

As to `COc1ccc(Cn2cccc2C(NS(=O)(=O)c2ccc(Cl)s2)C(C)C)cc1` (stereo not given), the outcome was Active.

As for `CCC(CC)[C@@H](NS(=O)(=O)c1ccc(Cl)s1)c1ccnn1Cc1ccc(O)cc1`, the result was Active.

With `CC(C)[C@H](NS(=O)(=O)c1ccc(Cl)s1)c1ccnn1-c1ccc(F)cc1`, the outcome was Active.

As to `CCC(CC)[C@@H](NS(=O)(=O)c1ccc(Cl)s1)c1ccnn1Cc1ccc(OC)cc1`, the result was Active.

As to `CCC(CC)C(NS(=O)(=O)c1ccc(Cl)cc1)c1ccnn1Cc1ccc(OC)cc1` (stereo not given), the result was Active.

For the compound `CCC(CC)C(NS(=O)(=O)c1ccc(Cl)s1)c1ccnn1Cc1ccc(OC)cc1` (stereo not given), the outcome was Active.

As for `CCC(CC)C(NS(=O)(=O)c1ccc(Br)cc1)c1ccnn1Cc1ccc(OC)cc1` (stereo not given), the result was Active.

For `CCC(CC)C(NS(=O)(=O)c1ccc(Cl)s1)c1nccn1Cc1ccccc1` (stereo not given), the result was Active.

For the compound `CCC(CC)C(NS(=O)(=O)c1ccc(C#N)cc1)c1ccnn1-c1ccccc1` (stereo not given), the result was Active.

As to `CCC(CC)C(NS(=O)(=O)c1ccc(Cl)cc1)c1ccnn1-c1ccccc1` (stereo not given), the result was Active.

As for `CCC(CC)C(NS(=O)(=O)c1ccc(Cl)s1)c1ccnn1-c1ccc(O)cc1` (stereo not given), the result was Active.

As to `CCC(CC)C(NS(=O)(=O)c1ccc(Cl)s1)c1nccn1Cc1ccc(OC)cc1` (stereo not given), the result was Active.

Regarding `CCC(CC)C(NS(=O)(=O)c1ccc(Cl)s1)c1ncnn1Cc1ccc(F)cc1` (stereo not given), the result was Active.

Consider `CCC(CC)C(NS(=O)(=O)c1ccc(Cl)s1)c1ccnn1S(=O)(=O)c1ccc(C)cc1` (stereo not given), for which the outcome was Active.

`Cc1ccc(-n2nccc2C(NS(=O)(=O)c2ccc(Cl)s2)C(C)C)cc1` (stereo not given): the outcome was Active.

In the case of `CCC(CC)C(NS(=O)(=O)c1ccc(Cl)s1)c1ccnn1-c1ccc(C(F)(F)F)cc1` (stereo not given), the outcome was Active.

In the case of `Cc1cccc(-n2nccc2C(NS(=O)(=O)c2ccc(Cl)s2)C(C)C)c1` (stereo not given), the outcome was Active.

As to `Cc1ccc(Cn2ncnc2C(NS(=O)(=O)c2ccc(Cl)s2)C(C)C)cc1` (stereo not given), the outcome was Active.

System in the next assay: not listed separately
Put plainly: Inhibition of gamma-secretase-mediated cleavage of human APP expressed in CHO cells assessed as reduction in amyloid beta40 production after 24 hrs by double sandwich ELISA. The format is cell-based.
On to `Cc1ccc(-n2nccc2[C@H](NS(=O)(=O)c2ccc(Cl)s2)C(C)C)cc1`, for which the EC50 is over 15000 nM.

In the case of `CCC(CC)C(c1ccnn1-c1ccccc1)N(C)S(=O)(=O)c1ccc(Cl)s1` (stereo not given), the EC50 turned out to be 70200 nM.

Turning to `COc1ccc(Cn2cccc2C(NS(=O)(=O)c2ccc(Cl)s2)C(C)C)cc1` (stereo not given), the half-maximal effective concentration (EC50) was determined as 13300 nM.

Take `CCC(CC)[C@@H](NS(=O)(=O)c1ccc(Cl)s1)c1ccnn1Cc1ccc(O)cc1`: the 50% effective concentration (EC50) is 8500 nM.

Consider `CC(C)[C@H](NS(=O)(=O)c1ccc(Cl)s1)c1ccnn1-c1ccc(F)cc1`, for which the concentration for a half-maximal effect (EC50) is 1010 nM.

As to `CCC(CC)[C@@H](NS(=O)(=O)c1ccc(Cl)s1)c1ccnn1Cc1ccc(OC)cc1`, the half-maximal effective concentration (EC50) was over 15000 nM.

In the case of `CCC(CC)C(NS(=O)(=O)c1ccc(Cl)cc1)c1ccnn1Cc1ccc(OC)cc1` (stereo not given), the EC50 came out at 1980 nM.

For the compound `CCC(CC)C(NS(=O)(=O)c1ccc(Cl)s1)c1ccnn1Cc1ccc(OC)cc1` (stereo not given), the EC50 was found to be 130 nM.

For `CCC(CC)C(NS(=O)(=O)c1ccc(Br)cc1)c1ccnn1Cc1ccc(OC)cc1` (stereo not given), the 50% effective concentration (EC50) came out at 2270 nM.

As to `CCC(CC)C(NS(=O)(=O)c1ccc(Cl)s1)c1nccn1Cc1ccccc1` (stereo not given), the concentration giving a half-maximal response (EC50) was 19400 nM.

On to `CCC(CC)C(NS(=O)(=O)c1ccc(C#N)cc1)c1ccnn1-c1ccccc1` (stereo not given), for which the EC50 was 85200 nM.

On to `CCC(CC)C(NS(=O)(=O)c1ccc(Cl)cc1)c1ccnn1-c1ccccc1` (stereo not given), for which the EC50 turned out to be 23000 nM.

On to `CCC(CC)C(NS(=O)(=O)c1ccc(Cl)s1)c1ccnn1-c1ccc(O)cc1` (stereo not given), for which the EC50 amounted to 630 nM.

On to `CCC(CC)C(NS(=O)(=O)c1ccc(Cl)s1)c1nccn1Cc1ccc(OC)cc1` (stereo not given), for which the EC50 was determined as 50600 nM.

Turning to `CCC(CC)C(NS(=O)(=O)c1ccc(Cl)s1)c1ncnn1Cc1ccc(F)cc1` (stereo not given), the concentration giving a half-maximal response (EC50) turned out to be 480 nM.

As for `CCC(CC)C(NS(=O)(=O)c1ccc(Cl)s1)c1ccnn1S(=O)(=O)c1ccc(C)cc1` (stereo not given), the 50% effective concentration (EC50) worked out at 1680 nM.

Regarding `Cc1ccc(-n2nccc2C(NS(=O)(=O)c2ccc(Cl)s2)C(C)C)cc1` (stereo not given), the EC50 was 420 nM.

Take `CCC(CC)C(NS(=O)(=O)c1ccc(Cl)s1)c1ccnn1-c1ccc(C(F)(F)F)cc1` (stereo not given): the half-maximal effective concentration (EC50) was 2190 nM.

Consider `Cc1cccc(-n2nccc2C(NS(=O)(=O)c2ccc(Cl)s2)C(C)C)c1` (stereo not given), for which the concentration giving a half-maximal response (EC50) came out at 2530 nM.

As for `Cc1ccc(Cn2ncnc2C(NS(=O)(=O)c2ccc(Cl)s2)C(C)C)cc1` (stereo not given), the concentration giving a half-maximal response (EC50) was 2890 nM.

In the next assay the test system is CHO. Nature of the assay: Inhibition of gamma-secretase-mediated cleavage of human APP expressed in CHO cells assessed as reduction in amyloid beta42 production after 24 hrs by double sandwich ELISA. The format is cell-based.
As for `Cc1ccc(-n2nccc2[C@H](NS(=O)(=O)c2ccc(Cl)s2)C(C)C)cc1`, the result was Active.

For the compound `CCC(CC)C(c1ccnn1-c1ccccc1)N(C)S(=O)(=O)c1ccc(Cl)s1` (stereo not given), the outcome was Active.

Regarding `COc1ccc(Cn2cccc2C(NS(=O)(=O)c2ccc(Cl)s2)C(C)C)cc1` (stereo not given), the result was Active.

With `CCC(CC)[C@@H](NS(=O)(=O)c1ccc(Cl)s1)c1ccnn1Cc1ccc(O)cc1`, the result was Active.

Take `CC(C)[C@H](NS(=O)(=O)c1ccc(Cl)s1)c1ccnn1-c1ccc(F)cc1`: the result was Active.

Regarding `CCC(CC)[C@@H](NS(=O)(=O)c1ccc(Cl)s1)c1ccnn1Cc1ccc(OC)cc1`, the result was Active.

In the case of `CCC(CC)C(NS(=O)(=O)c1ccc(Cl)cc1)c1ccnn1Cc1ccc(OC)cc1` (stereo not given), the result was Active.

Consider `CCC(CC)C(NS(=O)(=O)c1ccc(Cl)s1)c1ccnn1Cc1ccc(OC)cc1` (stereo not given), for which the outcome was Active.

Regarding `CCC(CC)C(NS(=O)(=O)c1ccc(Br)cc1)c1ccnn1Cc1ccc(OC)cc1` (stereo not given), the outcome was Active.

With `CCC(CC)C(NS(=O)(=O)c1ccc(Cl)s1)c1nccn1Cc1ccccc1` (stereo not given), the outcome was Active.

As to `CCC(CC)C(NS(=O)(=O)c1ccc(C#N)cc1)c1ccnn1-c1ccccc1` (stereo not given), the result was Active.

As to `CCC(CC)C(NS(=O)(=O)c1ccc(Cl)cc1)c1ccnn1-c1ccccc1` (stereo not given), the outcome was Active.

Regarding `CCC(CC)C(NS(=O)(=O)c1ccc(Cl)s1)c1ccnn1-c1ccc(O)cc1` (stereo not given), the result was Active.

As to `CCC(CC)C(NS(=O)(=O)c1ccc(Cl)s1)c1nccn1Cc1ccc(OC)cc1` (stereo not given), the result was Active.

As for `CCC(CC)C(NS(=O)(=O)c1ccc(Cl)s1)c1ncnn1Cc1ccc(F)cc1` (stereo not given), the outcome was Active.

For the compound `CCC(CC)C(NS(=O)(=O)c1ccc(Cl)s1)c1ccnn1S(=O)(=O)c1ccc(C)cc1` (stereo not given), the outcome was Active.

Regarding `Cc1ccc(-n2nccc2C(NS(=O)(=O)c2ccc(Cl)s2)C(C)C)cc1` (stereo not given), the outcome was Active.

For `CCC(CC)C(NS(=O)(=O)c1ccc(Cl)s1)c1ccnn1-c1ccc(C(F)(F)F)cc1` (stereo not given), the outcome was Active.

In the case of `Cc1cccc(-n2nccc2C(NS(=O)(=O)c2ccc(Cl)s2)C(C)C)c1` (stereo not given), the result was Active.

As for `Cc1ccc(Cn2ncnc2C(NS(=O)(=O)c2ccc(Cl)s2)C(C)C)cc1` (stereo not given), the outcome was Active.

System in another assay: not listed separately
Nature of the assay: Inhibition of gamma-secretase assessed as effect on APP level after 24 hrs by double sandwich ELISA.
`Cc1ccc(-n2nccc2[C@H](NS(=O)(=O)c2ccc(Cl)s2)C(C)C)cc1`: the outcome was Active.

Consider `CCC(CC)C(c1ccnn1-c1ccccc1)N(C)S(=O)(=O)c1ccc(Cl)s1` (stereo not given), for which the outcome was Active.

Turning to `COc1ccc(Cn2cccc2C(NS(=O)(=O)c2ccc(Cl)s2)C(C)C)cc1` (stereo not given), the outcome was Active.

Take `CCC(CC)[C@@H](NS(=O)(=O)c1ccc(Cl)s1)c1ccnn1Cc1ccc(O)cc1`: the outcome was Active.

For `CC(C)[C@H](NS(=O)(=O)c1ccc(Cl)s1)c1ccnn1-c1ccc(F)cc1`, the outcome was Active.

For `CCC(CC)[C@@H](NS(=O)(=O)c1ccc(Cl)s1)c1ccnn1Cc1ccc(OC)cc1`, the outcome was Active.

`CCC(CC)C(NS(=O)(=O)c1ccc(Cl)cc1)c1ccnn1Cc1ccc(OC)cc1` (stereo not given): the outcome was Active.

For the compound `CCC(CC)C(NS(=O)(=O)c1ccc(Cl)s1)c1ccnn1Cc1ccc(OC)cc1` (stereo not given), the result was Active.

Regarding `CCC(CC)C(NS(=O)(=O)c1ccc(Br)cc1)c1ccnn1Cc1ccc(OC)cc1` (stereo not given), the result was Active.

On to `CCC(CC)C(NS(=O)(=O)c1ccc(Cl)s1)c1nccn1Cc1ccccc1` (stereo not given), for which the result was Active.

For `CCC(CC)C(NS(=O)(=O)c1ccc(C#N)cc1)c1ccnn1-c1ccccc1` (stereo not given), the result was Active.

For `CCC(CC)C(NS(=O)(=O)c1ccc(Cl)cc1)c1ccnn1-c1ccccc1` (stereo not given), the outcome was Active.

Consider `CCC(CC)C(NS(=O)(=O)c1ccc(Cl)s1)c1ccnn1-c1ccc(O)cc1` (stereo not given), for which the outcome was Active.

For the compound `CCC(CC)C(NS(=O)(=O)c1ccc(Cl)s1)c1nccn1Cc1ccc(OC)cc1` (stereo not given), the result was Active.

Consider `CCC(CC)C(NS(=O)(=O)c1ccc(Cl)s1)c1ncnn1Cc1ccc(F)cc1` (stereo not given), for which the result was Active.

As for `CCC(CC)C(NS(=O)(=O)c1ccc(Cl)s1)c1ccnn1S(=O)(=O)c1ccc(C)cc1` (stereo not given), the result was Active.

Regarding `Cc1ccc(-n2nccc2C(NS(=O)(=O)c2ccc(Cl)s2)C(C)C)cc1` (stereo not given), the outcome was Active.

Turning to `CCC(CC)C(NS(=O)(=O)c1ccc(Cl)s1)c1ccnn1-c1ccc(C(F)(F)F)cc1` (stereo not given), the result was Active.

On to `Cc1cccc(-n2nccc2C(NS(=O)(=O)c2ccc(Cl)s2)C(C)C)c1` (stereo not given), for which the result was Active.

As for `Cc1ccc(Cn2ncnc2C(NS(=O)(=O)c2ccc(Cl)s2)C(C)C)cc1` (stereo not given), the outcome was Active.
